Experiment [1] deals with methicillin-resistant S. aureus (MRSA) COL. Put plainly: MIC assay, MRSA COL. Type of experiment: cell-based, Staphylococcus aureus. The conditions noted are these: MRSA COL.
The test system of experiment [2] is VRSA VRS 12. The experiment in a line: Broth microdilution MIC, VRSA VRS 12. In kind it is cell-based, S. aureus. The conditions noted are these: VRSA VRS 12. As to the method:
(§1) The data is given in supporting information (Table S5). Before starting the experiment, a single colony was picked from MHA plate, inoculated in MHBII and incubated overnight at 37 °C with shaking for 18–24 h to get the starter culture. Antibiotic susceptibility testing was conducted according to the CLSI (Clinical & Laboratory Standards Institute) guidelines using the broth microdilution assay. 10 mg/mL stock solutions of test compounds were prepared in DMSO. Bacterial cultures were inoculated in MHBII and optical density (OD) was measured at 600 nm, followed by dilution to achieve ~10^6 CFU/mL. The compounds were tested from 64 to 0.5 mg/L in two-fold serial diluted fashion with 2.5 μL of each concentration added to well of a 96-well round bottom microtiter plate. Later, 97.5 μL of bacterial suspension was added to each well containing either test compound or appropriate controls. […] The MIC is defined as the lowest concentration of the compound at which there is absence of visible growth. For each test compound, MIC determinations were carried out independently three times using duplicate samples.
For orientation: In broth dilution the organism is exposed to a series of concentrations in liquid medium.

Experiment [3] deals with MRSA NRS 100. The experiment in a line: Broth microdilution MIC, MRSA NRS 100. In kind it is cell-based, S. aureus. The conditions noted are these: MRSA NRS 100. As to the method:
as §1

For experiment [4], the system named is MRSA NRS 192. The experiment in a line: Broth microdilution MIC, MRSA NRS 192. Type of experiment: cell-based, S. aureus. The settings on record: MRSA NRS 192. The procedure: as §1
The test system of experiment [5] is HEK293T cells. Type of experiment: cell-based, Human. The procedure: The control for the experiments was DMSO. HEK293T cells were cultivated in DMEM high glucose supplemented with 10% heat-inactivated fetal bovine serum, 100 U/mL of penicillin and streptomycin and maintained at a temperature of 37 °C with 5% CO2. Initially, 4000/well of cells were seeded into 96-well plates and incubated for 24 h before being exposed to compounds at concentrations ranging from 0.78, 50, and 100 µM. After 24 h of incubation, the compounds were added and serially diluted and incubated for 24 and 48 h at 37 °C 5% CO2, the cells were stained with alamar Blue, and the fluorescence excitation/ emission 540 nm/590 nm was measured using 96 well-plate reader. CC50 is defined as the lowest concentration of compound which leads to a 50% reduction in cell viability compared to untreated and DMSO control. Each experiment was repeated in triplicate.

For experiment [6], the system named is Galleria mellonella infection model. On the set-up: method as in PMID 34018686. The settings on record: systematic infection model; cited from earlier work.
Experiment [7] relates to S. aureus ATCC 29213. The experiment in a line: Resistance induction by serial passage. Type of experiment: cell-based. The conditions noted are these: after 36 days at ½ MIC. The procedure:
The MICs of the passaged cultures were determined every 3 days and compared to that of wild type S. aureus ATCC 29213. MIC changes were recorded for 36 passages.

Experiment [8] concerns Escherichia coli W3110. Put plainly: MIC assay, E. coli. In kind it is cell-based. The conditions noted are these: Table S1, unit not given; method: starting concentration 100 μM.
In experiment [9] the test system is VRSA VRS 1. The experiment in a line: Broth microdilution MIC, VRSA VRS 1. In kind it is cell-based, S. aureus. The settings on record: VRSA VRS 1. The procedure: as §1
Experiment [10] concerns GFP-MinD expression (B. subtilis TB35). Put plainly: Translation inhibition assay (inducible GFP-MinD expression). Type of experiment: cell-based, Bacillus subtilis. The settings on record: 3.125 µM Pt1, 25 µM Pt8; 60 min. As to the method:
B. subtilis strain TB35 (Pxyl-minD-gfp) was grown in LB without inducer. After reaching an OD600 of 0.3, antibiotics and inducer (0.1% xylose) were added consecutively. Samples were withdrawn for microscopy after 60 min of treatment, spotted on glass slides covered with 1% agarose films, and imaged without delay.
Figure S11: MinD translation induction assay. TB35 (Pxyl-minD-gfp) was grown without xylose, thus not expressing GFP -MinD. […]
chloramphenicol (CHL). Images were taken after 60 min of induction/treatment. Scale bar 2 […]
(1 picture or pasted object on this page, not shown here)

Experiment [11] has as its system VRSA VRS 4. Put plainly: Broth microdilution MIC, VRSA VRS 4. In kind it is cell-based, S. aureus. The conditions noted are these: VRSA VRS 4. As to the method: as §1
Experiment [12] deals with B. subtilis 168CA. Put plainly: MIC against B. subtilis 168CA (mode of action conditions). In kind it is cell-based, Bacillus subtilis. The conditions noted are these: 16 h. The procedure:
To establish a starting concentration for the OSC assay, MICs against parent strain 168CA were determined under conditions equivalent to those used for mode of action assays. MICs were determined according to the Clinical Laboratory Standardization Institute (CLSI) in a serial microdilution assay. […] Cultures were incubated for 16 h at 37 °C under constant agitation. MICs were used as basis for OSC determination. To this end, growth curves were recorded using optical density (OD) measurements. Culture volumes of 20 mL were grown until reaching an OD600 of 0.3. […] An untreated culture served as control. Growth was followed until cultures reached the stationary phase. A concentration achieving 50–70% growth inhibition in exponential phase was selected as optimal stressor concentration.

In experiment [13] the test system is B. subtilis bSS82. Put plainly: Bacterial cytological profiling (BCP). Type of experiment: cell-based, Bacillus subtilis. The source says: To get an overview of the cellular effects of the compounds, we employed bacterial cytological profiling (BCP). To this end, we used a strain intracellularly expressing green-fluorescent protein (GFP) from the strong, constitutive PrpsD promoter (B. subtilis bSS82[37]), stained with the membrane dye Nile red and the DNA dye DAPI. Combined with phase contrast microscopy, this setup allows simultaneous assessment of cell morphology, cell lysis, pore formation, membrane morphology, and nucleoid morphology in one assay.
BCP was performed according to Wenzel et al.[71]. In short, B. subtilis strain […] (PrpsD-gfp) was grown to an OD600 of 0.3 prior to splitting of parent cultures and addition of antibiotics. Samples were taken for microscopy after 30, 60, and 120 min of antibiotic treatment. Five minutes prior to sampling, cultures were stained with 0.5 µg/mL Nile red and 1 µg/mL DAPI for 5 min. Samples of 0.5 µL were then spotted onto 1% agarose slides[45] and images were taken immediately.
Cell length and DAPI intensity were analyzed using MicrobeJ[73]. To this end, the fit shape, rod-shaped setting was used with a minimum area of 0.5 µm, while all other settings remained at default. B. subtilis chains were seperated based on the membrane stain. Membrane stress was counted using the ObjectJ plugin[74], using the membrane setting to seperate individual cells in chains. Membrane damage was expressed as ratio of cells with visible Nile red foci and total detected cells. DNA compaction was analyzed by determining the area of the DNA and the whole cell are using advanced weka segmentation. Cells were segmented according to the GFP signal. […] Cells that were out of focus or lysed were excluded from the analysis. Statistical analysis was peformed using GraphPad Prism 10 as specified in the individual figure legends.

Where [14] appears, read: 60 min, Pt1 3.125 µM, Pt8 25 µM, CisPt 100 µM.

Molecules are shown by their SMILES. Where “and” joins values, the source holds several entries; their conditions need not be identical. Equal entries are not always repeated. Where two headings read alike, the source gives them in different places. A value given as a limit tells only on which side of the number the result lay.

The MIC is the lowest concentration found to suppress growth. A low value points to greater potency. The term IC50 denotes the midpoint of a concentration-inhibition curve. Higher therefore signals weaker potency. Consider `C1=C\CC/C=C\CC/1.[Cl][Pt][Cl]` [Pt1], for which the MIC is 3.125 µM in experiment [1]; 0.67 to 1.34 µM in experiment [2]; 0.67 to 1.34 µM in experiment [3]; 0.125 – 0.25 µg/mL and 0.33–0.67 µM in experiment [4]; 0.67 to 1.34 µM in [9]; 0.67 to 1.34 µM in experiment [11]. Further, the MIC in experiment [12] is recorded as 6.25 µM. Besides, the half-maximal inhibitory concentration (IC50) was found to be 74.1 ± 4.1 µM in experiment [5] (24 h) and 65.3 ± 2.7 µM in experiment [5] (48 h). Besides, the in vivo activity result in [6] is “no in vivo activity was observed”. For the same compound, the MIC after passaging in [7] is recorded as 0.25 µg/mL. Besides, the “Antibacterial activity against E. coli” value in experiment [8] is on record as above 100. In experiment [10], the “GFP-MinD expression after xylose induction” value is listed as “No differences in GFP-MinD expression were observed”. Further, in experiment [13] (3.125 µM, not statistically supported), the “Nile red foci (membrane stress)” value is “Nile red foci, indicating membrane stress, were observed”. Also, the DAPI fluorescence intensity entry in [13] (setting [14]) was “significant reduction of the DAPI signal”. In addition, in experiment [13] (setting [14]), the “nucleoid compaction (cell area vs DAPI-stained nucleoid area)” value is reported as “clear nucleoid compaction”.

(Values after paper PMC13183915, “A platinum butterfly effect: small changes turn an anticancer drug into a non-toxic metalloantibiotic with in vivo efficacy” (npj Antimicrobials and Resistance, 2026).)
